# Literature values, collected in patent US20190021998A1, “TOPICAL NANOEMULSION THERAPY FOR WOUNDS” (THE REGENTS OF THE UNIVERSITY OF MICHIGAN, priority 2014, published 2019).
# Settings: footnote *
structure (smiles),measurement,value
"CCCCCCCCCCCCCCCCCC[N+](C)(C)CCCCCCCCCCCCCCCCCC [DODAC, Dioctadecyl dimethyl ammonium chloride]","CMC (mM), critical concentration for unilamellar vesicles",10* mM
